Experimental data taken from US10668051B2, “Modulators of calcium release-activated calcium channel” (Rhizen Pharmaceuticals SA, priority 2009, dated 2020).
Structures can show the parent of a compound that is named as a salt.

What follows are compounds tested against CRAC channels (Homo sapiens (Human), UniProt Q96D31) (assay: In-vitro CRAC channel inhibition assay in Jurkat cells (thapsigargin-induced calcium influx)).
Format: cell-based
Description: 1A. In-Vitro CRAC Channel Inhibition Assay in Jurkat Cells
Plate is incubated at 37° C./5% CO2 for 30 min followed by further 15 min incubation at room temperature. Test compounds (DMSO stocks diluted in Ca^2+ and Mg^2+ free Hanks buffer) at desired concentrations were added to the wells and incubated for 15 min. Thapsigargin (1 μM final concentration) was added to the wells and incubated for 15 min to inhibit the Sarco-endoplasmic reticulum Ca^2+ ATPase pump thereby depleting endoplasmic calcium and raising cytosolic calcium concentrations. Store-operated calcium entry was initiated by adding extracellular Ca^2+ to a final concentration of 1.8 mM. Fluorescence was monitored over 5 min on a plate reader (BMG Labtech., Germany) with excitation at 485 nm and; an emission wavelength at 520 nm. Data were analyzed using GraphPad Prism. IC50 for each compound was determined based on the percent inhibition of thapsigargin-induced calcium influx into cells.

Chain of CRAC channels (Q96D31 whole entry): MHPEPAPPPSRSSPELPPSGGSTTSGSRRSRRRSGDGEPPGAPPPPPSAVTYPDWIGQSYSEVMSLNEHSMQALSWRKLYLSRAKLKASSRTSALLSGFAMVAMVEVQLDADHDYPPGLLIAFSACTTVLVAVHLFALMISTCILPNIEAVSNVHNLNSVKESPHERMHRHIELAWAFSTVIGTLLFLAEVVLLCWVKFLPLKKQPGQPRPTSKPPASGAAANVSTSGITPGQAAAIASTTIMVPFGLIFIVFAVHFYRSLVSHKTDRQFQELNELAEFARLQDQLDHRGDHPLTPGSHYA

Structure (SMILES)	inhibition at 1 µM [%]	% inhibition (1 uM) [%]
Cc1nc(C)c(C(=O)Nc2ccc(-n3nc(C4CC4)cc3C3CC3)cc2)s1 [Example 3, N-[4-(3,5-dicyclopropyl-1H-pyrazol-1-yl)phenyl]-2,4-dimethylthiazole-5-carboxamide]	72.2	
Cc1oncc1C(=O)Nc1ccc(-n2nc(C3CC3)cc2C2CC2)cc1 [Example 4, N-[4-(3,5-dicyclopropyl-1H-pyrazol-1-yl)phenyl]-5-methylisoxazole-4-carboxamide]	100	
Cc1noc(C)c1C(=O)Nc1ccc(-n2nc(C3CC3)cc2C2CC2)cc1 [Example 5, N-[4-(3,5-dicyclopropyl-1H-pyrazol-1-yl)phenyl]-3,5-dimethylisoxazole-4-carboxamide]	48.5	
Cc1ccccc1C(=O)Nc1ccc(-n2nc(C3CC3)cc2C2CC2)cc1 [Example 7, N-[4-(3,5-dicyclopropyl-1H-pyrazol-1-yl)phenyl]-2-methylbenzamide]	99	
O=C(Nc1ccc(-n2nc(C3CC3)cc2C2CC2)cc1)c1c(F)cccc1F [Example 8, N-[4-(3,5-dicyclopropyl-1H-pyrazol-1-yl)phenyl]-2,6-difluorobenzamide]	100	
CS(=O)(=O)c1cccc(C(=O)Nc2ccc(-n3nc(C4CC4)cc3C3CC3)cc2)c1 [Example 10]	49.5	
CS(=O)(=O)c1ccc(C(=O)Nc2ccc(-n3nc(C4CC4)cc3C3CC3)cc2)cc1 [Example 11, N-[4-(3,5-dicyclopropyl-1H-pyrazol-1-yl)phenyl]-4-(methylsulfonyl)benzamide]	71.9	
CSc1ccc(Cl)c(C(=O)Nc2ccc(-n3nc(C4CC4)cc3C3CC3)cc2)c1 [Example 12, 2-chloro-N-[4-(3,5-dicyclopropyl-1H-pyrazol-1-yl)phenyl]-5-(methylthio)benzamide]	90.8	
CS(=O)(=O)c1ccc(Cl)c(C(=O)Nc2ccc(-n3nc(C4CC4)cc3C3CC3)cc2)c1 [Example 13, 2-chloro-N-[4-(3,5-dicyclopropyl-1H-pyrazol-1-yl)phenyl)-5-(methylsulfonyl)benzamide]	37.2	
O=C(Nc1ccc(-n2nc(C3CC3)cc2C2CC2)cc1)c1cccnc1 [Example 14, N-[4-(3,5-dicyclopropyl-1H-pyrazol-1-yl)phenyl]nicotinamide hydrochloride]	25.9	
O=C(Nc1ccc(-n2nc(C3CC3)cc2C2CC2)cc1)c1ccncc1 [Example 15, N-[4-(3,5-dicyclopropyl-1H-pyrazol-1-yl)phenyl]isonicotinamide hydrochloride]	94	
O=C(Nc1ccc(-n2nc(C3CC3)cc2C2CC2)cc1)c1ccncc1F [Example 16, N-[4-(3,5-dicyclopropyl-1H-pyrazole-1-yl)phenyl]-3-fluoroisonicotinamide]	92.8	
O=C(Nc1ccc(-n2nc(C3CC3)cc2C2CC2)cc1)c1c(Cl)cncc1Cl [Example 17, 3,5-dichloro-N-(4-(3,5-dicyclopropyl-1H-pyrazol-1-yl)phenyl)isonicotinamide]	87.5	
Cc1ncncc1C(=O)Nc1ccc(-n2nc(C3CC3)cc2C2CC2)cc1 [Example 18, N-[4-(3,5-dicyclopropyl-1H-pyrazol-1-yl)phenyl]-4-methylpyrimidine-5-carboxamide]	82.8	
O=C(Cc1ccccc1)Nc1ccc(-n2nc(C3CC3)cc2C2CC2)cc1 [Example 19, N-[4-(3,5-dicyclopropyl-1H-pyrazol-1-yl)phenyl]-2-phenylacetamide]	73.5	
O=C(Cc1ccc(F)cc1)Nc1ccc(-n2nc(C3CC3)cc2C2CC2)cc1 [Example 20, N-[4-(3,5-dicyclopropyl-1H-pyrazol-1-yl)phenyl]-2-(4-fluorophenyl)acetamide]	70.2	
O=C(Cc1ccccn1)Nc1ccc(-n2nc(C3CC3)cc2C2CC2)cc1 [Example 22, N-[4-(3,5-dicyclopropyl-1H-pyrazol-1-yl)phenyl]-2-(pyridin-2-yl)acetamide hydrochloride]	73.4	
O=C(Cc1cccnc1)Nc1ccc(-n2nc(C3CC3)cc2C2CC2)cc1 [Example 23, N-[4-(3,5-dicyclopropyl-1H-pyrazol-1-yl)phenyl]-2-(pyridin-3-yl)acetamide hydrochloride]	53.8	
O=C(Cc1ccncc1)Nc1ccc(-n2nc(C3CC3)cc2C2CC2)cc1 [Example 24, N-[4-(3,5-dicyclopropyl-1H-pyrazol-1-yl)phenyl]-2-(pyridin-4-yl)acetamide hydrochloride]	38	
O=C(CN1CCNCC1)Nc1ccc(-n2nc(C3CC3)cc2C2CC2)cc1 [Example 25, N-[4-(3,5-dicyclopropyl-1H-pyrazol-1-yl)phenyl]-2-(piperazin-1-yl)acetamide hydrochloride]	29	

Structure (SMILES)	inhibition at 1 µM [%]	% inhibition (1 uM) [%]
O=C(CN1CCOCC1)Nc1ccc(-n2nc(C3CC3)cc2C2CC2)cc1 [Example 26, N-[4-(3,5-dicyclopropyl-1H-pyrazol-1-yl)phenyl]-2-morpholinoacetamide]	43	
O=S(=O)(Nc1ccc(-n2nc(C3CC3)cc2C2CC2)cc1)c1ccccc1 [Example 27, N-[4-(3,5-dicyclopropyl-1H-pyrazol-1-yl)phenyl]benzenesulfonamide]	91.2	
Cc1ncsc1C(=O)Nc1ccc(-n2nc(C3CC3)cc2C2CC2)c(F)c1 [Example 29, N-[4-(3,5-dicyclopropyl-1H-pyrazol-1-yl)-3-fluorophenyl]-4-methylthiazole-5-carboxamide]	100	
Cc1noc(C)c1C(=O)Nc1ccc(-n2nc(C3CC3)cc2C2CC2)c(F)c1 [Example 30, N-[4-(3,5-dicyclopropyl-1H-pyrazol-1-yl)-3-fluorophenyl]-3,5-dimethylisoxazole-4-carboxamide]	35.1	
Cc1ccccc1C(=O)Nc1ccc(-n2nc(C3CC3)cc2C2CC2)c(F)c1 [Example 31, N-[4-(3,5-dicyclopropyl-1H-pyrazol-1-yl)-3-fluorophenyl]-2-methyl benzamide]	77	
O=C(Nc1ccc(-n2nc(C3CC3)cc2C2CC2)c(F)c1)c1cccc(F)c1F [Example 32, N-[4-(3,5-dicyclopropyl-1H-pyrazol-1-yl)-3-fluorophenyl]-2,3-difluorobenzamide]	63.6	
O=C(Nc1ccc(-n2nc(C3CC3)cc2C2CC2)c(F)c1)c1c(F)cccc1F [Example 33, N-[4-(3,5-dicyclopropyl-1H-pyrazol-1-yl)-3-fluorophenyl]-2,6-difluorobenzamide]	93.1	
O=C(Nc1ccc(-n2nc(C3CC3)cc2C2CC2)c(F)c1)c1cccnc1 [Example 34, N-[4-(3,5-dicyclopropyl-1H-pyrazol-1-yl)-3-fluorophenyl]nicotinamide hydrochloride]	21.5	
Cl.O=C(Nc1ccc(-n2nc(C3CC3)cc2C2CC2)c(F)c1)c1ccncc1 [Example 35, N-[4-(3,5-dicyclopropyl-1H-pyrazol-1-yl)-3-fluorophenyl]isonicotinamde hydrochloride]		100
Cc1ncncc1C(=O)Nc1ccc(-n2nc(C3CC3)cc2C2CC2)c(F)c1 [Example 36, N-[4-(3,5-dicyclopropyl-1H-pyrazol-1-yl)-3-fluorophenyl]-4-methylpyrimidine-5-carboxamide]	68.2	
Cc1nnsc1C(=O)Nc1ccc(-n2nc(C3CC3)c(Cl)c2C2CC2)c(F)c1 [Example 37, N-[4-(4-chloro-3,5-dicyclopropyl-1H-pyrazol-1-yl)-3-fluorophenyl]-4-methyl-1,2,3-thiadiazole-5-carboxamide]	82.2	
Cc1nnsc1C(=O)Nc1ccc(-n2nc(C3CC3)cc2C2CC2)nc1 [Example 38, N-[6-(3,5-dicyclopropyl-1H-pyrazol-1-yl)pyridin-3-yl]-4-methyl-1,2,3-thiadiazole-5-carboxamide hydrochloride]	52.7	
Cc1ncsc1C(=O)Nc1ccc(-n2nc(C3CC3)cc2C2CC2)nc1 [Example 39, N-[6-(3,5-dicyclopropyl-1H-pyrazol-1-yl)pyridin-3-yl]-4-methylthiazole-5-carboxamide hydrochloride]	41.3	
Cc1nc(C)c(C(=O)Nc2ccc(-n3nc(C4CC4)cc3C3CC3)nc2)s1 [Example 40, N-[6-(3,5-dicyclopropyl-1H-pyrazol-1-yl)pyridin-3-yl]-2,4-dimethylthiazole-5-carboxamide]	12.6	
Cc1noc(C)c1C(=O)Nc1ccc(-n2nc(C3CC3)cc2C2CC2)nc1 [Example 41, N-[6-(3,5-dicyclopropyl-1H-pyrazol-1-yl)pyridin-3-yl]-3,5-dimethylisoxazole-4-carboxamide]	0	
Cc1ccccc1NC(=O)c1ccc(-n2nc(C3CC3)cc2C2CC2)nc1 [Example 42, 6-(3,5-dicyclopropyl-1H-pyrazol-1-yl)-N-o-tolylnicotinamide]	26.2	
O=C(Nc1ccc(-n2nc(C3CC3)cc2C2CC2)nc1)c1ccccc1F [Example 43, N-[6-(3,5-dicyclopropyl-1H-pyrazol-1-yl)pyridin-3-yl]-2-fluorobenzamide]	9.34	
O=C(Nc1ccc(-n2nc(C3CC3)cc2C2CC2)nc1)c1cccc(F)c1F [Example 44, N-[6-(3,5-dicyclopropyl-1H-pyrazol-1-yl)pyridin-3-yl]-2,3-difluorobenzamide hydrochloride]	63.4	
O=C(Nc1ccc(-n2nc(C3CC3)cc2C2CC2)nc1)c1c(F)cccc1F [Example 45, N-[6-(3,5-dicyclopropyl-1H-pyrazol-1-yl)pyridin-3-yl]-2,6-difluorobenzamide hydrochloride]	72.3	
